Data taken from US20230145835A1, “Modulators of Alpha-4-beta-7 Integrin and MAdCAM” (48HD Biopharma Inc., priority 2021, published 2023).
Numbered stars: 1 amine (or outer) side, 2 acyl side, 3 side chain; on linkers, the order of the positions; unused ones are H or OH. Bridge positions count the residues as written; N and C are the ends. Square brackets hold non-standard residues; d marks the D form. Peptide text beside a SMILES is read from it. ξ: configuration not given here. X3 = O=C(/C=N/OCCCCCCOc1cc(C[*:2])cc(C[*:3])c1)[*:1]; X9 = NC(=O)[C@H](CS[*:1])CC(=O)[C@H](CCC(=O)O)N[*:2]; X1 = O=C(C=NOCCCCCCOc1cc(C[*:2])cc(C[*:3])c1)[*:1]; X5 = O=C(CCCCCCOc1cc(C[*:2])cc(C[*:3])c1)[*:1]; X7 = O=C(/C=N\OCc1cc(C[*:2])cc(C[*:3])c1)[*:1]; X4 = N=C(N)NCCC[C@@H](CN[*:1])C(=O)[*:2]; hIle(4ξ) = CCC(C)C[C@H](N)C(=O)O; Met(O) = CS(=O)CC[C@H](N)C(=O)O; Thr(3ξ) = CC(O)[C@H](N)C(=O)O; Nle = CCCC[C@H](N)C(=O)O

Target: T1, rh-integrin α4β7/LPAM-1 (Homo sapiens, UniProt P13612+P26010)
T1 sequence (P13612 34-977 limits assumed): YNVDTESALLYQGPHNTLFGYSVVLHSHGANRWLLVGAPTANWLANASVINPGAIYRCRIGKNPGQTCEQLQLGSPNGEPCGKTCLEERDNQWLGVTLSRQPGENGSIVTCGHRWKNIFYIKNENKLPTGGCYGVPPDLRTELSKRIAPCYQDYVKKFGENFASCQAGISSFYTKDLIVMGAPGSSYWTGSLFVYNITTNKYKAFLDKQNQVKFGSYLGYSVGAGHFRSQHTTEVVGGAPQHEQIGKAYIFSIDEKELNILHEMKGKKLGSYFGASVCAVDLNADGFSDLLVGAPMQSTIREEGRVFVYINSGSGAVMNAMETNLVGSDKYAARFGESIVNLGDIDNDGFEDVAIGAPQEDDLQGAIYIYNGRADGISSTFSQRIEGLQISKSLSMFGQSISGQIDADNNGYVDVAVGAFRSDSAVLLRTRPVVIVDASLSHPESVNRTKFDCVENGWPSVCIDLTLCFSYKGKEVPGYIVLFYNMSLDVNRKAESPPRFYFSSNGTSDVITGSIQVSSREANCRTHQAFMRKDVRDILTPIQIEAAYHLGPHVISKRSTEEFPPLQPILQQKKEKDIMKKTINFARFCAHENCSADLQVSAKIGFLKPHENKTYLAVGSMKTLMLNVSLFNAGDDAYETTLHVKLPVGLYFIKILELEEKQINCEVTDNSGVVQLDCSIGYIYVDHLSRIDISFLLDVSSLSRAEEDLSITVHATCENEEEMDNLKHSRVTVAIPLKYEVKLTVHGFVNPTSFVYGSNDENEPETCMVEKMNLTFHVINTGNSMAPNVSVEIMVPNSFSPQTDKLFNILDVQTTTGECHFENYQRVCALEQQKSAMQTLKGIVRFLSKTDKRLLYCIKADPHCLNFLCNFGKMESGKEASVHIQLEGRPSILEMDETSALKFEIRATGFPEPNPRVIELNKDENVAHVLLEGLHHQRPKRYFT
T1 sequence (P26010 20-723 limits assumed): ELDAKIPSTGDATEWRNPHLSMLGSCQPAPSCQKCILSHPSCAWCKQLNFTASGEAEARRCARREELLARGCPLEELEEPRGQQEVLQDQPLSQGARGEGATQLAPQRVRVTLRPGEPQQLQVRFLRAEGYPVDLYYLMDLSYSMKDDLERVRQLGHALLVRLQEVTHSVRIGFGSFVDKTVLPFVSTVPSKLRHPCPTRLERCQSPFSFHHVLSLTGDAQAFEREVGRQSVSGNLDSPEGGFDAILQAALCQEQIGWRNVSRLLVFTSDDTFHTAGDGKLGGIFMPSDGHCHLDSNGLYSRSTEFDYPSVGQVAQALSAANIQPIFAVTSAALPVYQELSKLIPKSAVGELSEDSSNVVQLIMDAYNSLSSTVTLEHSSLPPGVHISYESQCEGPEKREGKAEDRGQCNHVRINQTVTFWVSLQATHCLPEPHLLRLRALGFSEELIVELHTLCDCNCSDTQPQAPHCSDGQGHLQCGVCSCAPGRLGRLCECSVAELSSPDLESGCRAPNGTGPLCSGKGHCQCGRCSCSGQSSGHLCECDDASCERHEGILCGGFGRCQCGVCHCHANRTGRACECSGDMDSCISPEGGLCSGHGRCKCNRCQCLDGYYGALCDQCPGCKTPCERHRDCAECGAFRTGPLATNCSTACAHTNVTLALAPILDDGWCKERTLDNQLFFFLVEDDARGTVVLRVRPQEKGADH
Assay: α4β7-MadCAM Competition ELISA (Example 4)
Type: binding
Details: IC50, Table 3 Representative compounds; inhibition of MAdCAM binding to coated α4β7
Method: After washing with wash buffer, 200 μL assay buffer was added to each well and incubated for one hour at 28° C. After another wash with wash buffer, 100 μL of a MAdCAM and peptide mixture in assay buffer was added to each well and incubated for one hour at 28° C., followed by washing with wash buffer.

Question: How did the IC50 turn out when `CC[C@H](C)[C@@H]1NC(=O)[C@H]([C@@H](C)O)NC(=O)[C@H](CC(=O)O)NC(=O)[C@H](CO)NC(=O)[C@H](CCCNC(=N)N)NC(=O)[C@@H]2CSCc3cc(cc(c3)CSC[C@@H](C(N)=O)NC1=O)CO/N=C\C(=O)N[C@@H](C)C(=O)N2` [compound 94, TSL1- SACRSDTLC] (ACRSDTIC-NH2; linker N-2-8 via X7) was run?
Answer: 111 µM

Same assay, conditions: Table 3 Representative compounds; inhibition of MAdCAM binding to coated α4β7; read-out: IC50

Question: How did the IC50 turn out when `N=C(N)NCCC[C@H]1CNC(=O)CNC(=O)[C@H](Cc2ccc(O)cc2)NC(=O)[C@H](Cc2c[nH]c3ccccc23)NC(=O)[C@H](Cc2c[nH]cn2)NC(=O)[C@@H]2CSCc3cc(cc(c3)OCCCCCCO/N=C/C(=O)N[C@@H](CCC(N)=O)C(=O)N2)CSC[C@@H](C(N)=O)NC(=O)[C@@H](CO)NC1=O` [compound 111, TSL6- SQCHWYGRSC] (QCHWYG[X4][dS]C-NH2; linker N-2-9 via X3) was run?
Answer: > 500 µM

Question: Which IC50 does the source give for `CC(C)C[C@@H]1NC(=O)[C@@H]2CCCN2C(=O)[C@@H](NC(=O)[C@H](CCCCN)NC(=O)[C@@H](N)CO)CSSC[C@@H](C(N)=O)CC(=O)[C@H](CCC(=O)O)NC(=O)[C@H](Cc2ccc(O)cc2)NC(=O)[C@@H]2CCCN2C(=O)[C@H](C(C)O)NC(=O)[C@H](CC(=O)O)NC1=O` (stereo partly shown) [compound 25] (H-SKCPLD[Thr(3ξ)]PY; linker 3-C via X9) here?
Answer: 0.552 µM

Question: With `CCC(C)C[C@@H]1NC(=O)[C@H](CC(=O)O)NC(=O)[C@H](CC(C)C)NC(=O)[C@H](CCCCN)NC(=O)[C@@H]2CSCc3cc(cc(c3)OCCCCCCO/N=C/C(=O)N[C@@H](Cc3c[nH]cn3)C(=O)N2)CSC[C@@H](C(N)=O)NC(=O)[C@H](CC(C)C)NC(=O)[C@H](Cc2c[nH]c3ccccc23)NC1=O` (stereo partly shown) [compound 107, TSL6- SHCKLDIWVC] (HCKLD[hIle(4ξ)]WLC-NH2; linker N-2-9 via X3) as the compound, how does the IC50 read?
Answer: > 500 µM

Question: How did the IC50 turn out when `CCCC[C@@H]1NC(=O)[C@@H]2CCCN2C(=O)[C@@H]2CSCc3cc(cc(c3)OCCCCCCO/N=C/C(=O)N[C@@H](CCCNC(=N)N)C(=O)N2)CSC[C@@H](C(N)=O)NC(=O)[C@H](CCC(=O)O)NC(=O)[C@H](CCC(N)=O)NC(=O)[C@H](Cc2c[nH]c3ccccc23)NC(=O)[C@H]([C@@H](C)CC)NC(=O)[C@H](CC(=O)O)NC1=O` [compound 9] (RCP[Nle]DIWQEC-NH2; linker N-2-10 via X3) was run?
Answer: 0.187 µM

Question: With `CC(C)C[C@H]1NC(=O)[C@@H]2CCCN2C(=O)[C@@H]2CSCc3cc(cc(c3)OCCCCCCO/N=C/C(=O)N[C@@H](C)C(=O)N2)CSC[C@@H](C(N)=O)NC(=O)[C@H](CO)NC(=O)[C@@H]2CCCN2C(=O)[C@H](C(C)C)NC(=O)[C@H](CC(=O)O)NC1=O` [compound 74, TSL6- SACPLDVPSC] (ACP[dL]DVPSC-NH2; linker N-2-9 via X3) as the compound, how does the IC50 read?
Answer: 31 µM

Question: With `CC[C@H](C)[C@@H]1NC(=O)[C@H](CC(=O)O)NC(=O)[C@H](C)NC(=O)[C@@H]2CCCN2C(=O)[C@@H]2CSCc3cc(cc(c3)OCCCCCCO/N=C/C(=O)N[C@@H](CCC(N)=O)C(=O)N2)CSC[C@@H](C(N)=O)NC(=O)[C@H]([C@@H](C)O)NC(=O)[C@@H]2CCCN2C1=O` [compound 78, TSL6- SQCPADIPTC] (QCPADIPTC-NH2; linker N-2-9 via X3) as the compound, how does the IC50 read?
Answer: 43.7 µM

Question: For `CCCC[C@@H]1NC(=O)[C@@H]2CCCN2C(=O)[C@@H]2CSCc3cc(cc(c3)OCCCCCCO/N=C/C(=O)N[C@@H](CCCNC(=N)N)C(=O)N2)CSC[C@@H](C(N)=O)NC(=O)[C@H](CCCCN)NC(=O)[C@H](C(C)C)NC(=O)[C@H](Cc2c[nH]c3ccccc23)NC(=O)[C@H]([C@@H](C)CC)NC(=O)[C@H](CC(=O)O)NC1=O` [compound 27, TSL6- SRCP{Nle} DIWVKC] (RCP[Nle]DIWVKC-NH2; linker N-2-10 via X3), which IC50 is on record?
Answer: 0.62 µM

Question: How did the IC50 turn out when `CC(C)C[C@@H]1NC(=O)CNC(=O)[C@H](Cc2ccc(O)cc2)NC(=O)[C@H](CC(=O)O)NC(=O)[C@H](CO)NC(=O)[C@@H]2CSCc3cc(cc(c3)OCCCCCCO/N=C/C(=O)N[C@@H](C)C(=O)N2)CSC[C@@H](C(N)=O)NC(=O)[C@H](CCC(N)=O)NC1=O` [compound 86, TSL6- SACSDTGLQC] (ACSDYGLQC-NH2; linker N-2-9 via X3) was run?
Answer: 70.7 µM

Question: `CC(C)C[C@@H]1NC(=O)[C@@H]2CCCN2C(=O)[C@@H]2CSCc3cc(cc(c3)OCCCCCCO/N=C/C(=O)N[C@@H](CCCCN)C(=O)N2)CSC[C@@H](C(N)=O)NC(=O)[C@H](CCC(=O)O)NC(=O)[C@H](C)NC(=O)[C@@H]2CCCN2C(=O)[C@H]([C@@H](C)O)NC(=O)[C@H](CC(=O)O)NC1=O` [compound 35, TSL6- SKCPLDTPAEC] (KCPLDTPAEC-NH2; linker N-2-10 via X3) was tested. Which IC50 did it give?
Answer: 0.796 µM

Question: How did the IC50 turn out when `CC(C)C[C@@H]1NC(=O)[C@H](C)NC(=O)[C@@H]2CSCc3cc(cc(c3)OCCCCCCO/N=C/C(=O)N[C@@H](CCCCN)C(=O)N2)CSC[C@@H](C(N)=O)NC(=O)[C@H](CO)NC(=O)[C@@H]2CCCN2C(=O)[C@H](C(C)C)NC(=O)[C@H](CC(=O)O)NC1=O` [compound 59, TSL6- SKCALDVPSC] (KCALDVPSC-NH2; linker N-2-9 via X3) was run?
Answer: 4.01 µM

Question: With `CCCC[C@@H]1NC(=O)[C@H](CO)NC(=O)[C@H](CCCNC(=N)N)NC(=O)[C@@H]2CSCC(=O)N[C@@H](CCCNC(=N)N)C(=O)N[C@@H](CSSC[C@@H](C(=O)N[C@@H](Cc3c[nH]c4ccccc34)C(=O)N[C@@H](CCC(N)=O)C(N)=O)NC(=O)[C@H](CC(C)C)NC(=O)[C@@H](CC(=O)O)NC1=O)C(=O)N[C@@H](CO)C(=O)N[C@@H](CC(=O)O)C(=O)N[C@@H]([C@@H](C)O)C(=O)N[C@@H](CC(C)C)C(=O)N2` [compound 68] ({CH2CO}-RCSDTLCRS[Nle][dD]LCWQ-NH2; disulfide 2-13; thioether N-7) as the compound, how does the IC50 read?
Answer: 15.9 µM

Question: `CC(=O)N[C@H]1CSSC[C@@H](C(=O)NCC(=O)N[C@@H](CCC(=O)O)C(N)=O)NC(=O)[C@H](CC(C)C)NC(=O)[C@H]([C@@H](C)O)NC(=O)[C@H](CC(=O)O)NC(=O)[C@H](CO)NC(=O)[C@H](CCCNC(=N)N)NC1=O` [compound 7] (Ac-CRSDTLCGE-NH2; disulfide 1-7) was tested. Which IC50 did it give?
Answer: 0.136 µM

Same assay, conditions: competition ELISA, 4 μg/mL α4β7 coated, MAdCAM and peptide mixture, 28° C.; read-out: IC50

Question: For `CC[C@H](C)[C@@H]1NC(=O)[C@H](C)NC(=O)[C@H](CC[S+](C)[O-])NC(=O)[C@@H]2CCCN2C(=O)[C@@H]2CSCc3cc(cc(c3)OCCCCCCON=CC(=O)N[C@@H](CCC(N)=O)C(=O)N2)CSC[C@@H](C(=O)O)NC(=O)[C@H]([C@@H](C)O)NC(=O)[C@@H]2CCCN2C1=O` (stereo partly shown) [SEQ ID NO: 80] (QCP[Met(O)]AIPTC-OH; linker N-2-9 via X1), which IC50 is on record?
Answer: 152 µM

Question: With `CCCC[C@@H]1NC(=O)[C@@H]2CCCN2C(=O)[C@@H]2CSCc3cc(cc(c3)OCCCCCCC(=O)NCC(=O)N[C@@H](C)C(=O)N2)CSC[C@@H](C(=O)O)NC(=O)[C@H](CCC(=O)O)NC(=O)[C@H](CCC(N)=O)NC(=O)[C@H](Cc2c[nH]c3ccccc23)NC(=O)[C@H](C(C)C)NC(=O)[C@H](CC(=O)O)NC1=O` [SEQ ID NO: 122] (GACP[Nle]DVWQEC-OH; linker N-3-11 via X5; C-terminus assumed) as the compound, how does the IC50 read?
Answer: 0.74 µM

Question: Which IC50 does the source give for `CC(C)C[C@@H]1NC(=O)[C@@H]2CCCN2C(=O)[C@@H]2CSCc3cc(cc(c3)OCCCCCCON=CC(=O)N[C@@H](CCCCN)C(=O)N2)CSC[C@@H](C(=O)O)NC(=O)[C@H](CCC(=O)O)NC(=O)[C@H]([C@@H](C)O)NC(=O)[C@@H]2CCCN2C(=O)[C@H]([C@@H](C)O)NC(=O)[C@H](CC(=O)O)NC1=O` [SEQ ID NO: 121] (KCPLDTPTEC-OH; linker N-2-10 via X1) here?
Answer: 0.748 µM
